These results are taken from PubChem BioAssay (NCI).

What all share (test): NCI-60 cell line screen, 48 h
The test system of experiment [1] is A549 NSCLC.
Experiment [2] deals with HCT-15 colon.
The subject of experiment [3] is HOP-62 NSCLC.
Experiment [4] relates to KM12 colon.
Experiment [5] deals with NCI-H460 lung.
For experiment [6], the system named is SF-539 CNS.
The test system of experiment [7] is SK-MEL-28 melanoma.
The subject of experiment [8] is SK-OV-3 ovarian.
For experiment [9], the system named is A498 renal.
Experiment [10] relates to HL-60(TB) leukemia.

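Growth conditions: 96-well plates. Treatment: test compound, 48 hours, 5 concentrations. Analysis: linear interpolation between bracketing concentrations; unreached endpoints set to highest concentration. GI50: concentration for 50% inhibition of growth. TGI is the concentration that stops growth completely.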

Turning to `O=C1[C@H]2C(c3ccccc3)=NN(C(=O)c3ccccc3)[C@H]2C(=O)N1c1ccccc1`, the TGI in [1], in experiment [2], in experiment [3], in experiment [4], in experiment [5] and in experiment [6] was over 100 µM in each case. For the same compound, the TGI in experiment [7] and in experiment [8] was over 100 µM each time.

On to `COc1cc2ccn3c4cc(OC)c(OC)cc4cc3c2cc1OC`, for which the TGI in experiment [9], in experiment [1], in [10], in experiment [3], in [4] and in [5] was over 100 µM each time. Also, the TGI in [7] and in experiment [8] was over 100 µM in each case.

As to `COc1ccc(C2=CC(c3cc(OC)c(OC)c(OC)c3)n3ncnc3N2)cc1` (configuration not stated), the GI50 in experiment [9] was 0.0426 µM; in experiment [1] it was 0.0858 µM; in experiment [2], 0.042 µM; in experiment [10], 0.0252 µM; in experiment [3], 0.0588 µM; in experiment [4] it was 0.0402 µM. Also, the GI50 in [5] was 0.0418 µM; in experiment [7], 10.9 µM; in experiment [8], 0.0513 µM. For the same compound, the TGI in experiment [9] is 25.1 µM; in experiment [1], 30.3 µM; in experiment [2] it was over 100 µM; in [10], 0.0612 µM; in experiment [3] it was 25.2 µM; in experiment [4], 18.9 µM. In addition, the TGI in experiment [5] is 13.7 µM; in experiment [7] it was over 100 µM; in experiment [8], 27 µM.

For `CC1(C)N=C(N)N=C(N)N1c1ccc(OCC(=O)Nc2cccc(S(=O)(=O)F)c2)c(Cl)c1`, the TGI in [1] was over 100 µM; in experiment [2], over 100 µM; in experiment [10] it was over 100 µM; in experiment [3], over 79.7 µM; in [4] it was over 95 µM; in experiment [5], over 100 µM. The TGI in [6], in [7] and in [8] was over 100 µM each time.

With `COc1cc(C(c2cc3c(cc2O)OCO3)N2CCCC2)cc(OC)c1OC` (configuration not stated), the TGI in [9] came to 36.8 µM; in [1], 48.9 µM; in experiment [2], 29.2 µM; in experiment [10] it was 6.06 µM; in experiment [3], 97.5 µM; in experiment [4], 37.2 µM. Further, the values for the TGI in experiment [7] and in experiment [8] were 41.4 µM and over 100 µM, respectively.

`COc1ccc2cccc(C(=N)c3ccc(C)c4c3CCC4)c2c1`: the TGI turned out to be 5.87 µM in experiment [9]; 26.8 µM in experiment [1]; 20.6 µM in [2]; 9.12 µM in experiment [10]; 20 µM in experiment [3]; 22.9 µM in experiment [4]. Besides, the TGI in experiment [5] was 16.7 µM; in experiment [7] it was 26.9 µM; in [8] it was 29.9 µM.

Regarding `Brc1ccc2c(c1)C1(c3cc(Br)ccc3-2)c2cc(Br)ccc2-c2ccc(Br)cc21`, the TGI in [1], in experiment [2], in [10], in experiment [3], in experiment [4] and in [5] was over 100 µM each time. Moreover, the TGI in [6], in experiment [7] and in [8] was over 100 µM throughout.

For `O=C1OCC(C(=O)c2cccc(O)c2)C1=O` (configuration not stated), the TGI in [9], in experiment [1], in experiment [2], in experiment [3], in [4] and in [5] was over 100 µM throughout. In addition, the TGI in [6], in experiment [7] and in [8] was over 100 µM throughout.

As to `COC(=O)C12CC(C3CC31)C1CC12` (configuration not stated), the TGI in experiment [9], in [1], in [2], in experiment [10], in experiment [3] and in [5] was over 100 µM each time. Also, the TGI in [7] and in experiment [8] was over 100 µM in each case.

In the case of `O=c1[nH]c(=O)n(C2CC(O)C(CO)O2)cc1C#Cc1ccc(C(F)(F)F)cc1` (configuration not stated), the TGI in [1], in experiment [2], in experiment [10], in experiment [3], in experiment [4] and in experiment [5] was over 100 µM in each case. In addition, the TGI in [6], in experiment [7] and in experiment [8] was over 100 µM throughout.

On to `CC1OC(=O)N(CCCC=C2SCCCS2)C1=O` (configuration not stated), for which the TGI in experiment [9], in experiment [1], in experiment [2], in experiment [4], in [5] and in experiment [6] was over 100 µM each time. Further, the TGI in [7] and in [8] was over 100 µM in each case.

As for `COc1c(O)c(OC)c(C(=O)/C=C/c2ccccc2)c(O)c1OC`, the TGI in [2] was over 100 µM; in experiment [10], over 100 µM; in experiment [4] it was over 100 µM; in experiment [5], 45.8 µM; in [6], 86.7 µM; in [7], over 100 µM. Moreover, in experiment [8], the TGI is over 100 µM.

As for `CCOC(=O)c1cnc2[nH]c(=O)c3ccccc3n2c1=O`, the TGI in experiment [1], in experiment [2], in experiment [10], in experiment [3], in [4] and in experiment [5] was over 100 µM throughout. Besides, the TGI in experiment [6], in experiment [7] and in experiment [8] was over 100 µM each time.

For the compound `c1ccc2c(c1)CCCc1cc3ccccc3nc1-2`, the TGI in experiment [9], in experiment [1], in experiment [2], in [3], in experiment [4] and in [5] was over 100 µM each time. Besides, the TGI in experiment [6], in [7] and in experiment [8] was over 100 µM each time.

On to `COC(=O)C(CC=O)C(=O)C(=O)Nc1cccc(C(F)(F)F)c1` (configuration not stated), for which the TGI in [1], in [2], in experiment [10], in experiment [3], in experiment [4] and in [5] was over 100 µM in each case. The TGI in experiment [6], in experiment [7] and in [8] was over 100 µM each time.
